# Data: PubChem BioAssay (NCI)
# “And” between values parts separate entries of the source, which are not always exact repeats. Equal values may be shown once.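 Interpolation was linear, between the two tested concentrations surrounding the appropriate level; five concentrations were tested over 48 hours in 96-well plates. Abbreviation: GI50, concentration required for 50% inhibition of growth. Definition used: TGI = concentration required for complete inhibition of growth.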
# How the values were obtained:
# Test in all cases: NCI anticancer screen, dose series, 48 h
# SW-620 colon = tested on: SW-620 colon
# M14 melanoma = tested on: M14 melanoma
# MDA-MB-435 = tested on: MDA-MB-435
# SN12C renal = tested on: SN12C renal
# A549 NSCLC = tested on: A549 NSCLC
# RXF 393 renal = tested on: RXF 393 renal
# COLO 205 colon = tested on: COLO 205 colon
# HCT-116 colon = tested on: HCT-116 colon
# SK-MEL-5 melanoma = tested on: SK-MEL-5 melanoma
# HL-60(TB) leukemia = tested on: HL-60(TB) leukemia
Compound,TGI (SW-620 colon) [µM],TGI (M14 melanoma) [µM],TGI (MDA-MB-435) [µM],TGI (SN12C renal) [µM],TGI (A549 NSCLC) [µM],TGI (RXF 393 renal) [µM],TGI (COLO 205 colon) [µM],TGI (HCT-116 colon) [µM],TGI (SK-MEL-5 melanoma) [µM],GI50 (RXF 393 renal),GI50 (HL-60(TB) leukemia),TGI (HL-60(TB) leukemia)
CCOC(=O)c1[nH]cc(C)c1-c1ccn(-c2ccccc2)c1,> 100,> 100,> 100,> 100,> 100,> 100,> 100,> 100,63.9,,,
CSC1CC2C(CC1(C)O)C2(C)C (stereo not given),> 100,> 100,,> 100,> 100,> 100,> 100,> 100,> 100,29.6 µM and > 100 µM,19 µM and > 100 µM,70.5 µM and > 100 µM
COC(=O)c1ccccc1/C=C1/Cc2ccccc2C1=O,85.5,,> 100,36.5,> 100,> 100,> 100,62.8,62.8,,,> 100 µM
C/C(N=Nc1nc2ccccc2s1)=C1/C=CC=CN1O,> 100,> 100,> 100,> 100,> 100,> 100,> 100,> 100,> 100,,,
NC(=O)C(=O)N/N=C1/c2ccccc2CC1C1(O)C(=O)Nc2c(Cl)cc(Cl)cc21 (stereo not given),> 100,,,> 100,> 100,> 100,> 100,> 100,> 100,,,> 100 µM
CN(C)C(CN)CC1=C(CC(CN)N(C)C)CCC1 (stereo not given),> 100,,,> 100,> 100,> 100,> 100,> 100,> 100,,,> 100 µM
COc1cc(OCc2ccc3oc(=O)c(-c4ccccc4)nc3c2)cc(OC)c1OC,> 100,> 100,> 100,> 100,> 100,> 100,> 100,> 100,> 100,,,
CCN(CC)CCNc1ccc2nnn3c4ccc(OC)cc4c(=O)c1c23,17.1,23.5,,19.9,19.4,,20.4,14.5,25.5,,,22.3 µM
CCSC1=CC(=O)c2nc3ccccc3c3ccnc1c23,> 21.4,6.15,3.43,8.43,22.9,18.2,> 32.8,> 25.1,,,,7.74 µM
O=C(CN1CCCCC1)CC(O)(C(F)(F)F)C(F)(F)F,> 100,> 100,> 100,,> 100,> 100,> 100,> 100,> 100,,,> 100 µM
COCOc1ccc(OC)cc1,> 100,,,> 100,> 100,> 100,> 100,> 100,> 100,,,> 100 µM
C/C(=C\c1ccccc1)C(=O)CCN1CCOCC1,30.9,,,32.8,> 100,35.2,31,> 56.4,> 60.1,,,> 74.3 µM
